In patent US20240122978A1, “RETROVIRAL VECTOR FOR UNIVERAL RECEPTOR THERAPY” (Umoja BioPharma, Inc., priority 2019, published 2024):
“Also recorded” adds a separate entry of the source.

Test system: CAR-expressing T cells
Assay: Assessment of CAR expression and activation by flow cytometry
Assay type: cell-based
Settings: FITC coated beads or plate bound FITC; FIGS. 2A-2F
Procedure: Cells were transferred to individual wells of a 96-well V-bottom plate, the plate was spun at 400×g for 5 min, cells were washed with 200 μL PBS and spun again at 400×g for 5 min. Cells were incubated for 10 min at room temperature in 50 μL/well Zombie NIR Fixable Viability Dye (diluted 1:3000 in PBS). Cells were then washed with […] buffer (1×PBS+2% FBS) and the plate was spun at 400×g for 5 min. Next, 50 μL/well of surface stain in FACS buffer were added to the cells and incubated for 45 min at 4° C.
Cells were washed with 150 μL FACS buffer and the plate was spun at 400×g for 5 min. Cells were then fixed with 100 μL/well of BD Cytofix/Cytoperm buffer for 20 min at 4° C. Cells were then washed with 100 μL BD Perm/Wash diluted 10-fold in water and the plate was spun at 400×g for 5 min. Cells were washed again with 200 μL BD Perm/Wash diluted 10-fold in water and the plate was spun again at 400×g for 5 min. 50 μL/well of intracellular stain in 1×BD Perm/Wash was added to the cells and incubated for 30 min at 4° C. Cells were washed with 150 μL, FACS buffer, the plate was spun at 400×g for 5 min and the cells were resuspended in 200 μL FACS buffer for analysis using a Beckman Coulter CytoFLEX S cytometer. As depicted in FIGS. 2A-2F, CAR-expressing T cells expand in the presence of the antigen FITC and this expansion is enhanced with rapamycin. […]

Substance: fluorescein isothiocyanate [FITC]
- expansion/enrichment of CAR-expressing T cells in the presence of the antigen FITC: enriched; also recorded: enhanced expansion and activation; also recorded: expand
